Source: patent US20120322685A1, “DEVICE FOR COLLECTING AND ANALYZING MIGRATORY TUMOR CELLS” (priority 2010, published 2012)

Assays:
[1] = test system: MDA-MB-231 derived mammary tumors; test: in vivo invasion assay, MDA-MB-231 derived mammary tumors; parameters: species or system human tumor xenograft in SCID mice tumor xenograft in SCID mice; conditions: MDA-MB-231 tumors in mammary fat pads of SCID mice; FIG. 1C
Excerpt: Therefore, an in vivo invasion assay was created in which three needles (microneedles ˜100 um in diameter) containing matrigel and various growth factors are placed independently with microscopic precision, using a specially designed micromanipulator guided device, into the primary tumor for chemotaxis-based cell collection in vivo [3]. One needle contains control conditions (usually no ligand or an inhibitor), and the other two are identical. […] Fetal serum was also sufficient but this required signaling by the EGF receptor again implicating the EGF receptor. Furthermore, CSF-1 was also sufficient for cell collection. […]
Mammary tumors derived by injecting the human cell line MDA-MB-231 into a mammary fat pad of mice were used in the in vivo invasion assay. […] The involvement of EGF and CSF1 in carcinoma cell invasion has been analyzed from primary breast tumors derived from the injection of MDA-MB-231 cells into the mammary fat pads of SCID mice. […]

[2] = test system: Human lung tumors heterotransplanted into nude mice; test: in vivo invasion assay, chemotaxis-based cell collection into needles, human lung tumor heterotransplants; conditions: needles containing 50 nM Heregulin; first mouse to mouse transplant
Excerpt: Therefore, an in vivo invasion assay was created in which three needles (microneedles ˜100 um in diameter) containing matrigel and various growth factors are placed independently with microscopic precision, using a specially designed micromanipulator guided device, into the primary tumor for chemotaxis-based cell collection in vivo [3]. One needle contains control conditions (usually no ligand or an inhibitor), and the other two are identical. […] Fetal serum was also sufficient but this required signaling by the EGF receptor again implicating the EGF receptor. Furthermore, CSF-1 was also sufficient for cell collection. […] Migration and collection was directly correlated with macrophage density in the mammary gland, stage of progression to malignancy (only background levels of cells, <200 cells, were collected from normal mammary glands and adenoma stage tumors compared with carcinoma stage tumors, ˜1000 cells) and the presence of CSF1 in the tumor was required for cell collection as shown using mouse models with either decreased (op/op) or increased (tet on CSF-1) CSF-1 expression that regulates macrophage recruitment to the mammary gland and metastasis. […] Furthermore, the motility of tumor cells and intravasation occurs preferentially in association with macrophages. […]

Compound	CSF1-mediated collection of invasive cells (tumor cell and macrophage invasion) [1]	EGF-mediated collection of invasive cells (tumor cell and macrophage invasion) [1]	fold more cells collected in needles as compared to needles with buffer alone [2] [fold]
COc1cc2ncnc(Nc3ccc(F)c(Cl)c3)c2cc1OCCCN1CCOCC1 [Iressa]	inhibited	inhibited	–
Heregulin [reference compound]	–	–	2
